Test results taken from patent US7892492B2, “Flow-through apparatus for microscopic investigation of dissolution of pharmaceutical solids” (University of Connecticut, priority 2006, dated 2011).

Legend:
Format in all cases: physicochemical
[1] = Rotating disk (Wood's die) dissolution, 10−4N NaOH; settings: for Dissolution Rate: rotating disk, 900 ml 10−4N NaOH, room temperature
Protocol: In order to test an apparatus associated with the present disclosure against a rotating disk apparatus, the dissolution rate of Triamterene free base was determined in dilute NaOH. The dissolution media was chosen to be 10−4N NaOH, since at alkaline pH, the Triamterene free base is not ionized. This condition makes theoretical comparisons of flux easier since it is not necessary to account for multiple species (ionized and unionized species) and Levich's mathematical solution for dissolution from a rotating disk transport is valid. Rotating disk dissolution was run in a standard dissolution apparatus at 25, 80 and 200 rpm. The dissolution medium was 900 ml of 10−4 N NaOH at room temperature (since the flow cell has no temperature control at this time). The Wood's die apparatus has an exposed drug surface area of 0.5 cm^2. Approximately 125 mg of Triamterene free base was compressed into the die using a Carver Press. The compression conditions were 5000 lbs of force for 30 seconds. Triamterene was detected via fluorescence with excitation at 370 nm and emission at 432 nm. The rotating disk results are shown in FIG. 29 for each rotation speed. As expected, an increase in rotation speed leads to an increase in dissolution rate. The dissolution rate for the entire experiment is represented by the slope of this line. Because this is the Triamterene free base dissolving in alkaline conditions, it is not expected to undergo a conversion, thus a constant dissolution rate vs. time curve is expected. However, interesting results can be seen in FIG. 30 showing dissolution rate vs. time data. […] The data from FIGS. 32 and 33 were used to estimate the dissolution rate at each volumetric flow rate for FIG. 34.

[2] = Flow-through apparatus dissolution in HCl with stereomicroscope imaging; settings: flow cell
Protocol: A flow-through apparatus associated with the present disclosure was tested using a model compound. Triamterene free base was chosen as the model compound as this is readily available and there is literature available on its various salt forms. An advantage of an apparatus associated with the present disclosure is that the user is able to observe the solid during dissolution. The following experimental results are preliminary data for a flow-through apparatus experiment (before the compression step was controlled). Approximately 20 mg of a sample drug was compressed in an insert for dissolution. Flow-through experiments were performed using 0.1N or 0.001N HCl as the dissolution medium pumped through a dissolution channel at 5 ml/min and 25 ml/min. Triamterene concentration in the effluent was measured by UV analysis at 370 nm. […] With the flow cell mounted in a jig so that it is tilted slightly, it is possible to capture images that show the face of the drug compact that is exposed to the fluid as well as the “control” dry surface face adjacent to the glass plate. Flow is from left to right in the following figures of Triamterene Free Base Dissolution in 0.1 N HCl at 25 ml/min: FIG. 23 at t=0; FIG. 24 at t=5 min; FIG. 25 at t=10 min; FIG. 26 at t=15 min; FIG. 27 at t=20 min; FIG. 28 at 25 minutes.

[3] = Dissolution in flow-through apparatus (flow cell), 10−4N NaOH; settings: for Dissolution Rate: 10−4N NaOH, room temperature
Protocol: In order to test an apparatus associated with the present disclosure against a rotating disk apparatus, the dissolution rate of Triamterene free base was determined in dilute NaOH. The dissolution media was chosen to be 10−4N NaOH, since at alkaline pH, the Triamterene free base is not ionized. This condition makes theoretical comparisons of flux easier since it is not necessary to account for multiple species (ionized and unionized species) and Levich's mathematical solution for dissolution from a rotating disk transport is valid. Dissolution rate was also studied in an exemplary flow-through apparatus associated with the present disclosure. The dissolution medium (10−4N NaOH) was run continuously at 0.5, 1.5, 7.0, 20 mL/min. Triamterene free base was compressed into the insert by a mini-vise. Since a pressure reading is not possible on this vise, the mass of the drug in the insert was recorded and the porosity was calculated by using the dimensions of the insert, thickness of the drug compact and true density of the Triamterene free base as measured by pycnometry. Porosity of 10% or less was considered acceptable. Triamterene was detected via fluorescence with excitation at 370 nm and emission at 432 nm. The rotating disk results are shown in FIG. 29 for each rotation speed. As expected, an increase in rotation speed leads to an increase in dissolution rate. The dissolution rate for the entire experiment is represented by the slope of this line. Because this is the Triamterene free base dissolving in alkaline conditions, it is not expected to undergo a conversion, thus a constant dissolution rate vs. time curve is expected. However, interesting results can be seen in FIG. 30 showing dissolution rate vs. time data. […] The data from FIGS. 32 and 33 were used to estimate the dissolution rate at each volumetric flow rate for FIG. 34.

[4] = Rotating disk dissolution in HCl
Excerpt: Dissolution data are often collected in terms of amount dissolved curve vs. time. This is the case for rotating disk experiments due to the nature of the apparatus, i.e., batch operation. In rotating disk experiments, a change in solid form (such as salt form, polymorph form, amorphous to crystalline form) is indicated by a change in slope in a cumulative dissolution curve. A change of slope signifies a change in dissolution rate. […] In FIG. 20, the change in slope occurs at approximately 45 minutes, although it is difficult to determine an exact time due to some curvature in the plot.
These phenomena can be better understood by plotting a dissolution rate vs. time curve. For the rotating disk, data are still collected in a cumulative manner; however, further data treatment makes a change in slope easier to recognize. From a cumulative amount dissolved curve the slope between each set of adjacent points is taken and plotted against the midpoint of time. Using this method, it is easier to point out the time when the dissolution rate changes and determine the terminal dissolution rate. The resultant plot is a dissolution rate vs. time curve.

Row | Compound | Course of dissolution rate with time ([1]; rotating disk, 25, 80 and 200 rpm, 10−4N NaOH (FIG. 30)) | Dissolution Rate ([1]; 25 rpm) | Dissolution Rate ([1]; 80 rpm) | Dissolution Rate ([1]; 200 rpm) | Observable changes of the solid in stereomicroscope images ([2]; 0.001 HCl, 5 mL/min) | Time after which the dissolution rate is relatively constant ([2]; 0.001 HCl, 5 mL/min (FIG. 22)) | Salt transformation observed during dissolution ([2]; 0.1N HCl, 25 ml/min) | Time until which the new solid grows before it is washed away with the fluid ([2]; 0.1N HCl, 25 ml/min) | Observation of drug compact during dissolution ([2]; 0.1N HCl, 25 ml/min, after five minutes (FIG. 24)) | Course of dissolution rate with time ([3]; 0.5-20 mL/min, 10−4N NaOH (FIG. 33)) | Dissolution Rate ([3]; flow rate 0.5 ml/min) | Dissolution Rate ([3]; flow rate 1.5 ml/min) | Dissolution Rate ([3]; flow rate 7.0 ml/min) | Dissolution Rate ([3]; flow rate 20 ml/min) | Time of change in slope of cumulative amount dissolved vs. time curve ([4]; rotating disk, 0.001N HCl, 50 rpm, preliminary data (FIG. 20)) | Comparison of dissolution rate between HCl concentrations ([4]; rotating disk, 0.1, 0.01 or 0.001N HCl) | Rank order of dissolution rate with pH ([4]; rotating disk, chloride ion concentration normalized to 0.1N HCl)
1 | Nc1nc(N)c2nc(-c3ccccc3)c(N)nc2n1 [Triamterene free base, Triamterene] | initial decrease in the dissolution rate with time | 0.8 ug/cm^2min | 1.5 ug/cm^2min | 2.3 ug/cm^2min | did not reveal any observable changes | 25 min | significant hydrochloride salt growth on the drug surface | 15 min | nucleation and significant crystal growth has occurred | decrease of dissolution rate with time | 1.1 ug/cm^2min | 1.5 ug/cm^2min | 2.7 ug/cm^2min | 4.7 ug/cm^2min | approximately 45 minutes |  | 
2 | Triamterene citrate |  |  |  |  |  |  |  |  |  |  |  |  |  |  |  | highest dissolution rate in 0.01N HCl | 0.1N>0.01N>0.001N HCl
